# Earlier results in PMC8287724, “Reducing Auditory Nerve Excitability by Acute Antagonism of Ca^2+-Permeable AMPA Receptors” (Frontiers in Synaptic Neuroscience, 2021).
# Tested on: cochlear afferent synapses
# Design: method as in Hu et al., 2020
# Conditions: mouse; ~2.5 days of sustained intracochlear delivery; synaptopathic noise ref Hu et al., 2020; cited from earlier work
structure (smiles),measurement,value
C[N+](C)(C)CCCCCNCC12CC3CC(CC(C3)C1)C2 [IEM-1460],effect on noise-induced synapse loss and ABR wave-I amplitude,prevented synapse loss and loss of wave-I amplitude
